≈ marks a conversion by molar mass, not a printed value. Where “and” joins values, the source holds several entries; their conditions need not be identical. Equal entries are not always repeated.
Legend:
[1] = test system: Bacillus sp. TA ATCC 27860; assay: Antimicrobial activity of co-metabolite (M.I.C.); format: cell-based; details: ATCC27860
Excerpt: (§1) *Minimum inhibitory concentration per ml. in mcg.

[2] = test system: Escherichia coli ATCC 27856; assay: Antimicrobial activity of co-metabolite (M.I.C.); format: cell-based; details: ATCC27856
Excerpt: as §1

[3] = test system: Klebsiella pneumoniae ATCC 27858; assay: Antimicrobial activity of co-metabolite (M.I.C.); format: cell-based; details: ATCC27858
Excerpt: as §1

[4] = test system: Paecilomyces varioti ATCC 26820; assay: Antimicrobial activity of co-metabolite (M.I.C.); format: cell-based; details: ATCC26820
Excerpt: as §1

[5] = test system: Pseudomonas aeruginosa ATCC 8709; assay: Antimicrobial activity of co-metabolite (M.I.C.); format: cell-based; details: ATCC8709
Excerpt: as §1

[6] = test system: Staphylococcus aureus ATCC 6538P; assay: Antimicrobial activity of co-metabolite (M.I.C.); format: cell-based; details: ATCC6538P
Excerpt: as §1

[7] = test system: gram-positive bacteria; assay: Growth of gram-positive bacteria (summary in words); format: cell-based
[8] = Oral toxicity (LD50) in mice; details: mouse, in vivo
[9] = test system: Bacillus megaterium ATCC 8011; assay: Antimicrobial activity, agar well diffusion assay; format: cell-based; details: Priestia megaterium, ATCC8011, lowest twofold dilution giving a zone of inhibition, read-out: Minimum inhibitory concentration
[10] = test system: Sarcina lutea ATCC 9341; assay: Antimicrobial activity, agar well diffusion assay; format: cell-based; details: Micrococcus luteus, ATCC9341, lowest twofold dilution giving a zone of inhibition, read-out: Minimum inhibitory concentration
[11] = test system: Bacillus species E ATCC 27859; assay: Antimicrobial activity, agar well diffusion assay; format: cell-based; details: ATCC27859, lowest twofold dilution giving a zone of inhibition, read-out: Minimum inhibitory concentration
[12] = test system: Bacillus subtilis NRRL 558; assay: Antimicrobial activity, agar well diffusion assay; format: cell-based; details: NRRL558, lowest twofold dilution giving a zone of inhibition, read-out: Minimum inhibitory concentration
[13] = test system: Staphylococcus aureus ATCC 6538P; assay: Antimicrobial activity, agar well diffusion assay; format: cell-based; details: ATCC6538P, lowest twofold dilution giving a zone of inhibition, read-out: Minimum inhibitory concentration
[14] = test system: Bacillus species TA ATCC 27860; assay: Antimicrobial activity, agar well diffusion assay; format: cell-based; details: ATCC27860, lowest twofold dilution giving a zone of inhibition, read-out: Minimum inhibitory concentration
[15] = test system: Mycobacterium phlei ATCC 355; assay: Antimicrobial activity, agar well diffusion assay; format: cell-based; details: Mycolicibacterium phlei, ATCC355, lowest twofold dilution giving a zone of inhibition, read-out: Minimum inhibitory concentration
[16] = test system: Streptomyces cellulosae ATCC 3313; assay: Antimicrobial activity, agar well diffusion assay; format: cell-based; details: ATCC3313, lowest twofold dilution giving a zone of inhibition, read-out: Minimum inhibitory concentration
[17] = test system: Paecilomyces varioti ATCC 26820; assay: Antimicrobial activity, agar well diffusion assay; format: cell-based; details: ATCC26820, lowest twofold dilution giving a zone of inhibition, read-out: Minimum inhibitory concentration
[18] = test system: volatile fatty acids produced in the rumen; assay: In vitro rumen fermentation, ratio of volatile fatty acids (GLC); design: species or system steer; details: 4 hrs.; for μmoles C3 /μmoles C2 + μmoles nC4, means / μmoles C3 /μmoles C2 + μmoles nC4, replicate fermentations: 38° C.
Procedure: Rumen fluid is obtained from a steer with a fistulated rumen. The steer is maintained on the following ration:
The rumen fluid is immediately strained through a #30 mesh sieve. For each fermentation, 75 ml of the resulting fluid is added to a 250 ml flask containing the following:
1 g of 80%:20% finely ground grain: hay ration;
1 ml of an 18% aqueous glucose solution (1 millimole per flask);
1.5 ml of a 3.1% aqueous urea solution (0.76 millimole per flask);
60 micromoles of each of the 10 essential amino acids (arginine, histidine, leucine, methionine, threonine, valine, lysine, isoleucine, phenylalanine,tryptophan);
Carbon dioxide is continuously passed through the hood. […] Three ml of the supernate is added to 1 ml of a 25% metaphosphoric acid solution containing 23 micromoles 2-methyl valeric acid as an internal standard. The resulting fluid is permitted to sit at room temperature for 30 minutes. The fluid is filtered through a […] Millipore filter and refrigerated until gas-liquid chromatographic analyses for volatile fatty acids.

[19] = test system: ruminant animals; assay: Efficiency of feed utilization on oral administration; format: in vivo; details: administered orally
[20] = test system: DOCA-Na Sprague Dawley (Charles River) male rats; assay: Antihypertensive activity in DOCA-Na hypertensive rats, systolic blood pressure; format: in vivo, rat; details: 10 MG/KG × 3 days PO; for SYSTOLIC BLOOD PRESSURE, PCT CHANGE: change from pre drug controls
Procedure: (§2) Antihypertensive activity is tested for in the DOCA-Na Sprague Dawley (Charles River) male rats weighing 170-210 grams. DOCA-Na hypertension is produced by unilateral nephrectomy followed by subcutaneous implantation of a 25 mg. desoxycortico sterone (DOCA) pellet. Animals are placed in individual cages receiving 0.9% sodium chloride solution and rat chow diet ad libitum. Two weeks are allowed to elapse from the time of surgery for development of hypertension, i.e., systolic blood pressure of at least 150 mm. Hg.
(§3) Systolic blood pressure and heart rate are measured indirectly from the tail of unanesthetized rats, using a pneumatic pulse transducer. Control readings are taken prior to drug and at 1, 3, 6 and 24 hours post drug.
(§4) The results are expressed as absolute values and percent changes from controls.

[21] = test system: DOCA-Na Sprague Dawley (Charles River) male rats; assay: Cardiac rate in DOCA-Na hypertensive rats; format: in vivo, rat; details: 10 MG/KG × 3 days PO; for CARDIAC RATE, PCT CHANGE: change from pre drug controls; for CARDIAC RATE, individual rats: rats 1-6
Procedure: as §2, §3, §4

## CCC1(OC)C(=O)Nc2ccccc21 (stereo not drawn) [3-ethyl-1,3-dihydro-3-methoxy-2H-indole-2-one]
[1]
  MIC: 2.5 µg/mL
[2]
  MIC: 5 µg/mL
[3]
  MIC: 5 µg/mL
[4]
  MIC: 2.5 µg/mL
[5]
  MIC: 5 µg/mL
[6]
  MIC: 5 µg/mL
[7]
  effect on growth of gram-positive bacteria: adversely affecting the growth of certain gram-positive bacteria

## CCC(=CC=CC1C=CC2C(CC)CCC2C1C(=O)c1ccc[nH]1)C1OC(C(C)C(=O)O)CCC1C [Antibiotic X-14547, α-(R), 5 (S)-dimethyl-6(R)-{1-ethyl-4-[4-(R)-(2-pyrrolyl-carbonyl)-1(S)-ethyl-3a(R),4,5(R),7a(R)-tetrahydroindan-5-yl]-1(E), 3(E)-butadienyl}tetrahydropyran-2-acetic acid]
[8]
  LD50 at 24 h: 129 mg/kg
[9]
  MIC: 0.1 µg/mL (≈ 0.203 µM)
[10]
  MIC: 0.1 µg/mL (≈ 0.203 µM)
[11]
  MIC: 0.2 µg/mL (≈ 0.405 µM)
[12]
  MIC: 0.1 µg/mL (≈ 0.203 µM)
[13]
  MIC: 0.2 µg/mL (≈ 0.405 µM)
[14]
  MIC: 0.2 µg/mL (≈ 0.405 µM)
[15]
  MIC: 3.1 µg/mL (≈ 6.28 µM)
[16]
  MIC: 0.8 µg/mL (≈ 1.62 µM)
[17]
  MIC: 6.3 µg/mL (≈ 12.8 µM)
[7]
  effect on growth of gram-positive bacteria: adversely affecting the growth of certain gram-positive bacteria
[18]; 10 and 25 ppm, versus controls
  ratio of propionate (C3) to acetates and n-butyrates: significantly improved
[18]; 10 ppm
  μmoles C3 /μmoles C2 + μmoles nC4, means: 0.491
  μmoles C3 /μmoles C2 + μmoles nC4, replicate fermentations: 0.493 and 0.489
[18]; 25 ppm
  μmoles C3 /μmoles C2 + μmoles nC4, means: 0.521
  μmoles C3 /μmoles C2 + μmoles nC4, replicate fermentations: 0.531 and 0.510
[19]
  efficiency of feed utilization: increases the efficiency of feed utilization in ruminant animals
[20]; day 1
  SYSTOLIC BLOOD PRESSURE, MEAN: 188.3 mmHg
  SYSTOLIC BLOOD PRESSURE, PCT CHANGE: -9.0 PCT
[20]; day 1, rats 1-6
  SYSTOLIC BLOOD PRESSURE, individual rats: 216 mmHg and 178 mmHg and 184 mmHg and 198 mmHg and 151 mmHg and 203 mmHg
[20]; day 2, first line
  SYSTOLIC BLOOD PRESSURE, MEAN: 185.7 mmHg
  SYSTOLIC BLOOD PRESSURE, PCT CHANGE: -10.3 PCT
[20]; day 2, first line, rats
  SYSTOLIC BLOOD PRESSURE, individual rats: 211 mmHg and 201 mmHg and 176 mmHg and 168 mmHg and 190 mmHg
[20]; day 2, second line
  SYSTOLIC BLOOD PRESSURE, MEAN: 171.3 mmHg
  SYSTOLIC BLOOD PRESSURE, PCT CHANGE: -17.1 PCT
[20]; day 2, second line, rats 1-6
  SYSTOLIC BLOOD PRESSURE, individual rats: 184 mmHg and 174 mmHg and 161 mmHg and 165 mmHg and 179 mmHg
[20]; day 3, first line
  SYSTOLIC BLOOD PRESSURE, MEAN: 205.0 mmHg
  SYSTOLIC BLOOD PRESSURE, PCT CHANGE: -0.7 PCT
[20]; day 3, first line, rats 1-6
  SYSTOLIC BLOOD PRESSURE, individual rats: 214 mmHg and 195 mmHg and 193 mmHg and 219 mmHg and 198 mmHg and 211 mmHg
[20]; day 3, second line
  SYSTOLIC BLOOD PRESSURE, MEAN: 196.0 mmHg
  SYSTOLIC BLOOD PRESSURE, PCT CHANGE: -5.2 PCT
[20]; day 3, second line, rats 1-6
  SYSTOLIC BLOOD PRESSURE, individual rats: 210 mmHg and 177 mmHg and 173 mmHg and 206 mmHg and 190 mmHg and 220 mmHg
[20]; day 4
  SYSTOLIC BLOOD PRESSURE, MEAN: 202.8 mmHg
  SYSTOLIC BLOOD PRESSURE, PCT CHANGE: -1.7 PCT
[20]; day 4, rats 1-6
  SYSTOLIC BLOOD PRESSURE, individual rats: 197 mmHg and 172 mmHg and 229 mmHg and 212 mmHg and 179 mmHg and 228 mmHg
[21]; day 1
  CARDIAC RATE, MEAN: 420.0 BEATS/MIN
  CARDIAC RATE, PCT CHANGE: 2.0 PCT
  CARDIAC RATE, individual rats: 480 BEATS/MIN and 360 BEATS/MIN and 450 BEATS/MIN and 440 BEATS/MIN and 390 BEATS/MIN and 400 BEATS/MIN
[21]; day 2, first line
  CARDIAC RATE, MEAN: 400.0 BEATS/MIN
  CARDIAC RATE, PCT CHANGE: -2.6 PCT
  CARDIAC RATE, individual rats: 430 BEATS/MIN and 320 BEATS/MIN and 360 BEATS/MIN and 490 BEATS/MIN and 370 BEATS/MIN
[21]; day 2, second line
  CARDIAC RATE, MEAN: 378.3 BEATS/MIN
  CARDIAC RATE, PCT CHANGE: -8.1 PCT
  CARDIAC RATE, individual rats: 420 BEATS/MIN and 310 BEATS/MIN and 400 BEATS/MIN and 380 BEATS/MIN and 450 BEATS/MIN
[21]; day 3, first line
  CARDIAC RATE, MEAN: 363.3 BEATS/MIN
  CARDIAC RATE, PCT CHANGE: -11.3 PCT
  CARDIAC RATE, individual rats: 380 BEATS/MIN and 360 BEATS/MIN and 370 BEATS/MIN and 350 BEATS/MIN
[21]; day 3, second line
  CARDIAC RATE, MEAN: 365.0 BEATS/MIN
  CARDIAC RATE, PCT CHANGE: -10.8 PCT
  CARDIAC RATE, individual rats: 370 BEATS/MIN and 360 BEATS/MIN and 350 BEATS/MIN and 380 BEATS/MIN
[21]; day 4
  CARDIAC RATE, MEAN: 356.7 BEATS/MIN
  CARDIAC RATE, PCT CHANGE: -13.1 PCT
  CARDIAC RATE, individual rats: 370 BEATS/MIN and 320 BEATS/MIN and 360 BEATS/MIN and 350 BEATS/MIN and 340 BEATS/MIN and 400 BEATS/MIN
